# Results taken from patent US10604524B2, “Pyrropyrimidine compounds as MNKs inhibitors” (LIFEARC, priority 2015, dated 2020).
# How the values were obtained:
# Test in all cases: Kinase selectivity screen
# FGFR4 = FGFR4 (Homo sapiens, UniProt P22455); settings: read-out: % Inhibition FGFR4
# PIM2 = PIM2 (Homo sapiens, UniProt Q9P1W9); settings: read-out: % Inhibition PIM2
# STK4 = STK4 (Homo sapiens, UniProt Q13043); settings: read-out: % Inhibition STK4
# AXL = AXL (Homo sapiens, UniProt P30530); settings: read-out: % Inhibition AXL
# AXL, sequence (P30530 26-894, species assumed): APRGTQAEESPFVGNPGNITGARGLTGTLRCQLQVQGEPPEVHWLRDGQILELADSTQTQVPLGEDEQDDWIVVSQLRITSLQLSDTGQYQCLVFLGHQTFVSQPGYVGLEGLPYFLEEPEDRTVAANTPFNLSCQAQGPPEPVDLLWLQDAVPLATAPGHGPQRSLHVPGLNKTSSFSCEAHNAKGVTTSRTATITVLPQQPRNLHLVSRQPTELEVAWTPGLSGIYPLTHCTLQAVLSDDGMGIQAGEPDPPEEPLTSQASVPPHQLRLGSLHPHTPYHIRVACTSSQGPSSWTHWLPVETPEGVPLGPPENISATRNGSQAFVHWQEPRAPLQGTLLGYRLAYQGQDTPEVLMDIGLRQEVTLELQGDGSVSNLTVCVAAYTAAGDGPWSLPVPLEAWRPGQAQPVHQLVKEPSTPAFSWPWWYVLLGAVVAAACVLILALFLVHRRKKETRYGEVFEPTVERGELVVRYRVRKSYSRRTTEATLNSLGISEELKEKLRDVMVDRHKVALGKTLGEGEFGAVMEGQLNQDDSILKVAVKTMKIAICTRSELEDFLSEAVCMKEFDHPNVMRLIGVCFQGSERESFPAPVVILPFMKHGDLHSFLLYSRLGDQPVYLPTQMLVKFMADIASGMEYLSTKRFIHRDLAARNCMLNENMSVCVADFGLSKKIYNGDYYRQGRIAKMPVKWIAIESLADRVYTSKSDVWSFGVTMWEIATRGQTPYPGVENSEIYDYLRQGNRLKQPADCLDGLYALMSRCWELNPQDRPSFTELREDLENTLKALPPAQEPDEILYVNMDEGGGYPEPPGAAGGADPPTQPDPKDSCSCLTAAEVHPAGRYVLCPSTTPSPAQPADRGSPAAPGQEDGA
# ERBB4 = ERBB4 (Homo sapiens, UniProt Q15303); settings: read-out: % Inhibition ERBB4
# PRKCA = PRKCA (Homo sapiens, UniProt P17252); settings: read-out: % Inhibition PRKCA
# CHEK1 = CHEK1 (Homo sapiens, UniProt O14757); settings: read-out: % Inhibition CHEK1
# CHEK1, sequence (O14757 whole entry, species assumed): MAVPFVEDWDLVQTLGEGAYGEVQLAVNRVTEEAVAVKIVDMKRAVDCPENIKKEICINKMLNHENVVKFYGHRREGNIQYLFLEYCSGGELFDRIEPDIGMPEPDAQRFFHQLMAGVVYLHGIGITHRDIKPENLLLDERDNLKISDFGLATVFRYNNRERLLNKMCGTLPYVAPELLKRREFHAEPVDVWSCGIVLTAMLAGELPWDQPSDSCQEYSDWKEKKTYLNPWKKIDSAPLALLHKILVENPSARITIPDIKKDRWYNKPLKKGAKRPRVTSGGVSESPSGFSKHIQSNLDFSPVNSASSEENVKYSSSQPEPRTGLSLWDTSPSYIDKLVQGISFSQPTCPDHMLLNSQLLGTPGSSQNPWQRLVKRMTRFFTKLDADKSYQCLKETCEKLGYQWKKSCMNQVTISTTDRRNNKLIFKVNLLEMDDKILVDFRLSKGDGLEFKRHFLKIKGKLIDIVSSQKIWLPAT
# MET = MET (Homo sapiens, UniProt P08581); settings: read-out: % Inhibition MET
# MET, sequence (P08581 25-1390): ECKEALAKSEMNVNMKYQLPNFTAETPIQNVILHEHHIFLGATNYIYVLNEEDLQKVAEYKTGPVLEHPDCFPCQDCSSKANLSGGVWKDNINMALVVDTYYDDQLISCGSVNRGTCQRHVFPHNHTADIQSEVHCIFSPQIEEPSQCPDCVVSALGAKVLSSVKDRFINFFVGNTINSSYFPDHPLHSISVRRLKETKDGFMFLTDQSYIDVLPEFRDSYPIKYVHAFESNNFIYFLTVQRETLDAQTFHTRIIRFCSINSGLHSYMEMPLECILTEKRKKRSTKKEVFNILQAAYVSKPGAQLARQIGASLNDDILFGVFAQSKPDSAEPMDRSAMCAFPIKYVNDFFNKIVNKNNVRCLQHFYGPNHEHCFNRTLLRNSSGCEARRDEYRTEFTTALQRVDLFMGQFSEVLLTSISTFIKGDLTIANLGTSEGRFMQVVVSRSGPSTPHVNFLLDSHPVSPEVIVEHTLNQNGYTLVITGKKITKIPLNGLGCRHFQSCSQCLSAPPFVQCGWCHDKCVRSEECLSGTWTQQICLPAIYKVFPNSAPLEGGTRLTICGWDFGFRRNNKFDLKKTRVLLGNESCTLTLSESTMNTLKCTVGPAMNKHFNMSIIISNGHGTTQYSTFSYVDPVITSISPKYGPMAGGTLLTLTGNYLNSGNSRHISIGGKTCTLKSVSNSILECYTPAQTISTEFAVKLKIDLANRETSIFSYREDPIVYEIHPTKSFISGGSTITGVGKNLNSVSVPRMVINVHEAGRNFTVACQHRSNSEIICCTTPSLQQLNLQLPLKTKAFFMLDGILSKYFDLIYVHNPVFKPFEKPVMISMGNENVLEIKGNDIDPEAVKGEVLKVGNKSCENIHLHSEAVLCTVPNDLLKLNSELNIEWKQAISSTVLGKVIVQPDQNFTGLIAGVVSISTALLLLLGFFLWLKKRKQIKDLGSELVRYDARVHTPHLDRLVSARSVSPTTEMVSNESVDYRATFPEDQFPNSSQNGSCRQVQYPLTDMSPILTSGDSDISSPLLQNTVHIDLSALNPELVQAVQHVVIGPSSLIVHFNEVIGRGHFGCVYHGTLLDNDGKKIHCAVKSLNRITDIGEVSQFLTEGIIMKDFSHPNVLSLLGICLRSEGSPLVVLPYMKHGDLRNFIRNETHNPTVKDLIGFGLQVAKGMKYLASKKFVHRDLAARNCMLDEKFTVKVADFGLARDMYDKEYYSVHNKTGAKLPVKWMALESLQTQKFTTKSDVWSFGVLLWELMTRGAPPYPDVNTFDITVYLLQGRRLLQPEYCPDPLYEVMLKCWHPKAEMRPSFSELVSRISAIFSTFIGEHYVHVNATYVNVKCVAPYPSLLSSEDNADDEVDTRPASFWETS
# EGFR = EGFR (Homo sapiens, UniProt P00533); settings: read-out: % Inhibition EGFR
# PAK7 = PAK7 (Homo sapiens, UniProt Q9P286); settings: read-out: % Inhibition PAK7
# EPHB4 = EPHB4 (Homo sapiens, UniProt P54760); settings: read-out: % Inhibition EPHB4
# FER = FER (Homo sapiens, UniProt P16591); settings: read-out: % Inhibition FER
# AKT2 = AKT2 (Homo sapiens, UniProt P31751); settings: read-out: % Inhibition AKT2
# FYN = FYN (Homo sapiens, UniProt P06241); settings: read-out: % Inhibition FYN
# FYN, sequence (P06241 whole entry, species assumed): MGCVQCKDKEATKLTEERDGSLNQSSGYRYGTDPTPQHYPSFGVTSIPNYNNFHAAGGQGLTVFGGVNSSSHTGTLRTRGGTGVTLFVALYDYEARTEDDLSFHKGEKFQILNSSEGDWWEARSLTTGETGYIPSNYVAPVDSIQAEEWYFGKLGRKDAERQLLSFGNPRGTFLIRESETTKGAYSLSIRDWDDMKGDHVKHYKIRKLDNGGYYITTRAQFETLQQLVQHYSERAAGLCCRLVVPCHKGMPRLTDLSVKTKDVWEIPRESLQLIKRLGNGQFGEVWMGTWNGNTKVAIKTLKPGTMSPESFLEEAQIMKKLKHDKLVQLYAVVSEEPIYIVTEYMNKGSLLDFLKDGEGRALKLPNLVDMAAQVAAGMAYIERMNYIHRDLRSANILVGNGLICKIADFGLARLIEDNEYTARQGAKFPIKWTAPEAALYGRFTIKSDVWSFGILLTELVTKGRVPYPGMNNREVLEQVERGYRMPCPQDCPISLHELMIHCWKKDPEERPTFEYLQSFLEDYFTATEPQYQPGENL
# EEF2K = EEF2K (Homo sapiens, UniProt O00418); settings: read-out: % Inhibition EEF2K
# CSF1R = CSF1R (Homo sapiens, UniProt P07333); settings: read-out: % Inhibition CSF1R
# STK4, sequence (Q13043 whole entry, species assumed): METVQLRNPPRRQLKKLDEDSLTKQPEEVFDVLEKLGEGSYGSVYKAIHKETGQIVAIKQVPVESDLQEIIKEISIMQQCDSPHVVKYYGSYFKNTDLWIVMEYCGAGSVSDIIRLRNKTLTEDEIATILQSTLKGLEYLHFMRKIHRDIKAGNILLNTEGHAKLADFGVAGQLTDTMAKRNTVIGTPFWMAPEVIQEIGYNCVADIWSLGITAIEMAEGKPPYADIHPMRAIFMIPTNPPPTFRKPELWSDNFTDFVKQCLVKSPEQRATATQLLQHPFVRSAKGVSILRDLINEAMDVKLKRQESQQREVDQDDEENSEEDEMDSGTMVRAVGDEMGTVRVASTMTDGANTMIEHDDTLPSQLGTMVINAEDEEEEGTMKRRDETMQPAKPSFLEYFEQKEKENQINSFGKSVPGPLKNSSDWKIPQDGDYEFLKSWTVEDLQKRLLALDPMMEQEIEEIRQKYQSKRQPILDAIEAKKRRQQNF
# PIM2, sequence (Q9P1W9 whole entry, species assumed): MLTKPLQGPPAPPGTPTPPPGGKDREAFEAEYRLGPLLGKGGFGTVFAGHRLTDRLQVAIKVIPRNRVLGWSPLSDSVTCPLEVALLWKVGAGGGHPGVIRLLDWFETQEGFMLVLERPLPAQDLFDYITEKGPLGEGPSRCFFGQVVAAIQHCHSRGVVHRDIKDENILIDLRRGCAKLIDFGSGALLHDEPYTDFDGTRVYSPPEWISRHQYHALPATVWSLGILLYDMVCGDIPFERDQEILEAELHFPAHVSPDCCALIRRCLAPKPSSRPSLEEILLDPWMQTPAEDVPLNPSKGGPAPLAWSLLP
smiles,measurement,setting,value
"CC(C)Oc1cc(F)ccc1Nc1ncnc2cc(C(=O)NCCCN(C)C)n(C)c12 [Example 40, N-[3-(dimethylamino)propyl]-4-{[4-fluoro-2-(propan-2-yloxy)phenyl]amino}-5-methyl-5H-pyrrolo[3,2-d]pyrimidine-6-carboxamide]",inhibition at 1 µM,FGFR4,0%
same,inhibition at 1 µM,PIM2,0%
same,inhibition at 1 µM,STK4,0%
same,inhibition at 1 µM,AXL,0%
same,inhibition at 1 µM,ERBB4,0%
same,inhibition at 1 µM,PRKCA,5%
same,inhibition at 1 µM,CHEK1,0%
same,inhibition at 1 µM,MET,13%
same,inhibition at 1 µM,EGFR,0%
same,inhibition at 1 µM,PAK7,0%
same,inhibition at 1 µM,EPHB4,2%
same,inhibition at 1 µM,FER,0%
same,inhibition at 1 µM,AKT2,0%
same,inhibition at 1 µM,FYN,0%
same,inhibition at 1 µM,EEF2K,0%
same,inhibition at 1 µM,CSF1R,8%
